How the values were obtained:
Type in all cases: in vivo
[1] = tested on: Digitaria sanguinalis; experiment: Indoor herbicide activity determination, post-emergence (stem and leaf spray at 2-4 leaf stage); conditions: 504 h, 60 g a.i./ha, determined 21 days later, read-out: Inhibition rate of fresh weight, Digitaria sanguinalis
Source text: (§1) The testing method for herbicide activity of the compound of the present invention was as follows:
(§2) Post-emergence: an appropriate quantity of seeds of gramineous weeds (Echinochloa crusgalli, Eleusine indica, Digitaria sanguinalis, Alopecurus japonicus, Beckmannia syzigachne, Leptochloa chinensis, Polypogon fugax, Alopecurus aequalis, Lolium multiflorum, Poa annua, Aegilops tauschii, Avena fatua, Alopecurus myosuroides, Alopecurus japonicus and Alopecurus aequalis), broad-leaved weeds (Eclipta prostrata, Amaranthus retroflexus, Rorippa indica, Malachium aquaticum, Veronica polita, Conyza canadensis, Sesbania cannabina, Sagittariatrifolia and Schoenoplectiella juncoides), and Cyperus iria were sown in plastic pots having a diameter of 7 cm and holes at the bottom and filled with nutrient soil (sandy soil, pH 6.1, organic matter 1%) respectively, the seeds were covered with an appropriate amount of soil after being sown, then the soil was wetted with water from the bottom, the seeds were cultured in a constant-temperature illuminated culture room until a 2-4 leaf stage, and stems and leaves underwent spray treatment. After the treatment, the test materials were placed in a laboratory and cultured in the constant-temperature illuminated culture room after the liquid was naturally dry in the shade, and results were determined 21 days later. Inhibition rate of fresh weight % = (1−(fresh weight of treated plants)/(fresh weight of control plants)) × 100% [formula]

[2] = tested on: Eclipta prostrata; experiment: as above; conditions: 504 h, 60 g a.i./ha, determined 21 days later, read-out: Inhibition rate of fresh weight, Eclipta prostrata
Source text: as §1, §2

[3] = tested on: Cyperus iria; experiment: as above; conditions: 504 h, 60 g a.i./ha, determined 21 days later, read-out: Inhibition rate of fresh weight, Cyperus iria
Source text: as §1, §2

[4] = tested on: Alopecurus japonicus; experiment: Indoor herbicide activity determination, Seed Treatment; pre-emergence (soil spray); conditions: Dosage 240 g a.i./ha
Method in brief: (§3)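 Readout is percent inhibition of fresh weight relative to control plants, determined 21 days after treatment. Soil was sprayed one day after sowing, in a spray tower at 300 mm height and 390 mL/min nozzle flow, onto sandy soil of pH 6.1 with 1% organic matter.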

[5] = tested on: Alopecurus myosuroides; experiment: as above; conditions: Dosage 240 g a.i./ha
Method in brief: as §3

[6] = tested on: Eleusine indica; experiment: as above; conditions: Dosage 240 g a.i./ha
Method in brief: as §3

[7] = tested on: Lolium multiflorum; experiment: as above; conditions: Dosage 240 g a.i./ha
Method in brief: as §3

[8] = tested on: Leptochloa chinensis; experiment: as above; conditions: Dosage 240 g a.i./ha
Method in brief: as §3

| SMILES | inhibition at 60 g/ha [1] | inhibition at 60 g/ha [2] | inhibition at 60 g/ha [3] | Herbicidal activities, Alopecurus japonicus (inhibition rate class) [4] | Herbicidal activities, Alopecurus myosuroides (inhibition rate class) [5] | Herbicidal activities, Eleusine indica (inhibition rate class) [6] | Herbicidal activities, Lolium multiflorum (inhibition rate class) [7] | Herbicidal activities, Leptochloa chinensis (inhibition rate class) [8] |
| --- | --- | --- | --- | --- | --- | --- | --- | --- |
| C=CC1(C(=O)N[C@H]2C[C@@H](C(=O)O)C2)CC(c2cc(F)cc(Cl)c2)=NO1 (mixture of isomers) [I-27] | 80 to 100% | 40 to 60% | 80 to 100% | A (A indicates that the inhibition rate was greater than or equal to 80% to 100%) | A (A indicates that the inhibition rate was greater than or equal to 80% to 100%) | A (A indicates that the inhibition rate was greater than or equal to 80% to 100%) | A (A indicates that the inhibition rate was greater than or equal to 80% to 100%) | A (A indicates that the inhibition rate was greater than or equal to 80% to 100%) |
| C=CC1(C(=O)N[C@H]2C[C@@H](C(=O)OC)C2)CC(c2cc(F)cc(Cl)c2)=NO1 (mixture of isomers) [I-29] | 80 to 100% | 40 to 60% | 80 to 100% | A (A indicates that the inhibition rate was greater than or equal to 80% to 100%) | A (A indicates that the inhibition rate was greater than or equal to 80% to 100%) | A (A indicates that the inhibition rate was greater than or equal to 80% to 100%) | A (A indicates that the inhibition rate was greater than or equal to 80% to 100%) | A (A indicates that the inhibition rate was greater than or equal to 80% to 100%) |
| C=CC1(C(=O)N[C@H]2C[C@@H](C(=O)O)C2)CC(c2cc(Cl)cc(Cl)c2)=NO1 (mixture of isomers) [I-37] | 80 to 100% | 60 to 80% | 80 to 100% | A (A indicates that the inhibition rate was greater than or equal to 80% to 100%) | A (A indicates that the inhibition rate was greater than or equal to 80% to 100%) | A (A indicates that the inhibition rate was greater than or equal to 80% to 100%) | A (A indicates that the inhibition rate was greater than or equal to 80% to 100%) | A (A indicates that the inhibition rate was greater than or equal to 80% to 100%) |
| C=CC1(C(=O)N[C@H]2C[C@@H](C(=O)OC)C2)CC(c2cc(Cl)cc(Cl)c2)=NO1 (mixture of isomers) [I-39] | 80 to 100% | 60 to 80% | 80 to 100% | A (A indicates that the inhibition rate was greater than or equal to 80% to 100%) | A (A indicates that the inhibition rate was greater than or equal to 80% to 100%) | A (A indicates that the inhibition rate was greater than or equal to 80% to 100%) | A (A indicates that the inhibition rate was greater than or equal to 80% to 100%) | A (A indicates that the inhibition rate was greater than or equal to 80% to 100%) |
| C=CC1(C(=O)N[C@H]2C[C@@H](C(=O)O)C2)CC(c2cc(F)cc(C(F)(F)F)c2)=NO1 (mixture of isomers) [I-49] | 60 to 80% | 60 to 80% | 80 to 100% | A (A indicates that the inhibition rate was greater than or equal to 80% to 100%) | A (A indicates that the inhibition rate was greater than or equal to 80% to 100%) | A (A indicates that the inhibition rate was greater than or equal to 80% to 100%) | A (A indicates that the inhibition rate was greater than or equal to 80% to 100%) | A (A indicates that the inhibition rate was greater than or equal to 80% to 100%) |
| C=CC1(C(=O)N[C@H]2C[C@@H](C(=O)OC)C2)CC(c2cc(F)cc(C(F)(F)F)c2)=NO1 (mixture of isomers) [I-51] | 60 to 80% | 60 to 80% | 80 to 100% | A (A indicates that the inhibition rate was greater than or equal to 80% to 100%) | A (A indicates that the inhibition rate was greater than or equal to 80% to 100%) | A (A indicates that the inhibition rate was greater than or equal to 80% to 100%) | A (A indicates that the inhibition rate was greater than or equal to 80% to 100%) | A (A indicates that the inhibition rate was greater than or equal to 80% to 100%) |
| C=CC1(C(=O)N[C@H]2C[C@@H](C(=O)OC)C2)CC(c2cc(Cl)cc(C(F)(F)F)c2)=NO1 (mixture of isomers) [I-55] | 60 to 80% | 60 to 80% | 80 to 100% | A (A indicates that the inhibition rate was greater than or equal to 80% to 100%) | A (A indicates that the inhibition rate was greater than or equal to 80% to 100%) |  | A (A indicates that the inhibition rate was greater than or equal to 80% to 100%) | A (A indicates that the inhibition rate was greater than or equal to 80% to 100%) |
| C=CC1(C(=O)N[C@H]2C[C@@H](C(=O)O)C2)CC(c2cc(F)cc(OC(F)(F)F)c2)=NO1 (mixture of isomers) [I-57] | 80 to 100% | 60 to 80% | 80 to 100% | A (A indicates that the inhibition rate was greater than or equal to 80% to 100%) | A (A indicates that the inhibition rate was greater than or equal to 80% to 100%) | A (A indicates that the inhibition rate was greater than or equal to 80% to 100%) | A (A indicates that the inhibition rate was greater than or equal to 80% to 100%) | A (A indicates that the inhibition rate was greater than or equal to 80% to 100%) |
| C=CC1(C(=O)N[C@H]2C[C@@H](C(=O)OC)C2)CC(c2cc(F)cc(OC(F)(F)F)c2)=NO1 (mixture of isomers) [I-59] | 80 to 100% | 60 to 80% | 80 to 100% | A (A indicates that the inhibition rate was greater than or equal to 80% to 100%) | A (A indicates that the inhibition rate was greater than or equal to 80% to 100%) | A (A indicates that the inhibition rate was greater than or equal to 80% to 100%) | A (A indicates that the inhibition rate was greater than or equal to 80% to 100%) | A (A indicates that the inhibition rate was greater than or equal to 80% to 100%) |
| COC(=O)[C@H]1C[C@@H](NC(=O)C2(C(F)(F)F)CC(c3cc(Cl)cc(C(F)(F)F)c3)=NO2)C1 (relative stereo) [I-247] | 80 to 100% | 60 to 80% | 80 to 100% | A (A indicates that the inhibition rate was greater than or equal to 80% to 100%) | A (A indicates that the inhibition rate was greater than or equal to 80% to 100%) |  | A (A indicates that the inhibition rate was greater than or equal to 80% to 100%) | A (A indicates that the inhibition rate was greater than or equal to 80% to 100%) |
| COC(=O)[C@H]1C[C@@H](NC(=O)C2(CF)CC(c3cc(F)cc(F)c3)=NO2)C1 (relative stereo) [I-310] | 80 to 100% | 60 to 80% | 80 to 100% | A (A indicates that the inhibition rate was greater than or equal to 80% to 100%) | A (A indicates that the inhibition rate was greater than or equal to 80% to 100%) |  | A (A indicates that the inhibition rate was greater than or equal to 80% to 100%) | A (A indicates that the inhibition rate was greater than or equal to 80% to 100%) |

— patent EP4722201A1, “3-PHENYLISOXAZOLINE-5-CARBOXAMIDE COMPOUND, AND PREPARATION METHOD THEREFOR, HERBICIDAL COMPOSITION THEREOF AND USE THEREOF” (Jiangsu Flag Chemical Industry Co., Ltd, priority 2023, dated 2024)
